Laboratory results taken from US11267802B2 (BEBETTER MED INC., priority 2015, dated 2022).

Assays:
[1] = test system: LOVO; experiment: Inhibition assay on tumor cell proliferation (CellTiter-Glo), LOVO; assay type: cell-based, Human; settings: Homo sapiens; LOVO (wild-type EGFR), 72 hours, 10% bovine serum
Procedure: (§1) By using a CellTiter-Glo luminescence cell viability test kit (Promega, # G7572), the content of adenosine triphosphate (ATP) was determined to assess the cell viability.
(§2) Human colon cancer cell line LOVO and human non-small-cell lung cancer H358 express wild-type EGFR. Human non-small-cell lung cancer cell line HCC827 carries deletion mutation in exon 19 (ex19del). Those cell lines are purchased from Shanghai Fudan IBS Cell Resource Center and American Tissue Culture Collection (ATCC).
(§3) The assay procedure is as follows. The cells in a cell culture plate were digested with a pancreatic enzyme, re-suspended in a DPBS culture medium, and had the cell density counted by Scepter automated cytometer (Millipore # PHCC00000). The cells were diluted to a solution of 44,000 cells per ml. The cell solution with adjusted density was added to the cell assay plate at 90 microliters per well. The plate was placed in an incubator with 5% CO2 at 37° C. for 24 hours of incubation, and then added with different concentrations of subject compounds. The cells were incubated for 72 hours with the compounds in presence of 10% bovine serum. The content of ATP was determined by a CellTiter-Glo® Luminescent Cell Viability Assay kit (see the manufacturer's instruction for details) to evaluate cell-growth inhibition.
(§4) Briefly, 30 μl of CellTiter-Glo® reagent was added to each well, and then shaken for 10 minutes to induce cell lysis. The fluorescent signal was detected and recorded by Fluoroskan Ascent FL (Thermo). The max signal value was obtained from the cells treated by dimethyl sulfoxide for 72 hours. The min signal value was obtained from the medium alone (the number of the cells was 0). Inhibitory rate %=(max signal value−compound signal value)/(max signal value−min signal value)×100. The data was processed by GraphPad Prism V5.0 software (GraphPad Software, San Diego, Calif.). Sigmoidal dose-response curve fitting was performed to calculate the IC50 value.

[2] = test system: H358; experiment: Inhibition assay on tumor cell proliferation (CellTiter-Glo), H358; assay type: cell-based, Human; settings: Homo sapiens, NCI-H358; H358 (wild-type EGFR), 72 hours, 10% bovine serum
Procedure: as §1, §2, §3, §4

[3] = test system: H1975; experiment: Inhibition assay on tumor cell proliferation (CellTiter-Glo), H1975; assay type: cell-based, Human; settings: Homo sapiens, NCI-H1975; H1975 (L858R and T790M EGFR double mutation), 72 hours, 10% bovine serum
[4] = target: T1, EGFR T790M/L858R (Homo sapiens, UniProt P00533, L858R/T790M); experiment: Mutant EGFR T790M/L858R activity inhibition assay (Caliper mobility shift); assay type: biochemical; settings: read-out: enzyme activity inhibition (IC50) EGFR T790M/L858R
T1 construct: purchased Invitrogen PR8911A
Procedure: The assay procedure is as follows. […] 5 μl of the compound dissolved in 10% DMSO at a concentration of 5-fold of the final reaction concentration was added to a 384 well plate. 5 μl of 10% DMSO was used in a no-compound control well, while 5 μl of a kinase buffer was used in a no-enzyme activity control well. […] The conversion rate was read on Caliper EZ Reader II (Caliper Life Sciences). The conversion rate was then converted to inhibitory rate.
As used herein, “max” refers to the conversion rate of the DMSO no-compound control well, and “min” refers to the conversion rate of the no-enzyme activity control well. A curve was obtained by plotting the inhibitory rate as a function of the compound concentration. The XLFit excel add-in version 4.3.1 software was used to fit the curve and calculate the IC50. Inhibitory rate %=(max−conversion rate)/(max−min)×100.

T1 sequence (P00533 25-1210 T790M/L858R): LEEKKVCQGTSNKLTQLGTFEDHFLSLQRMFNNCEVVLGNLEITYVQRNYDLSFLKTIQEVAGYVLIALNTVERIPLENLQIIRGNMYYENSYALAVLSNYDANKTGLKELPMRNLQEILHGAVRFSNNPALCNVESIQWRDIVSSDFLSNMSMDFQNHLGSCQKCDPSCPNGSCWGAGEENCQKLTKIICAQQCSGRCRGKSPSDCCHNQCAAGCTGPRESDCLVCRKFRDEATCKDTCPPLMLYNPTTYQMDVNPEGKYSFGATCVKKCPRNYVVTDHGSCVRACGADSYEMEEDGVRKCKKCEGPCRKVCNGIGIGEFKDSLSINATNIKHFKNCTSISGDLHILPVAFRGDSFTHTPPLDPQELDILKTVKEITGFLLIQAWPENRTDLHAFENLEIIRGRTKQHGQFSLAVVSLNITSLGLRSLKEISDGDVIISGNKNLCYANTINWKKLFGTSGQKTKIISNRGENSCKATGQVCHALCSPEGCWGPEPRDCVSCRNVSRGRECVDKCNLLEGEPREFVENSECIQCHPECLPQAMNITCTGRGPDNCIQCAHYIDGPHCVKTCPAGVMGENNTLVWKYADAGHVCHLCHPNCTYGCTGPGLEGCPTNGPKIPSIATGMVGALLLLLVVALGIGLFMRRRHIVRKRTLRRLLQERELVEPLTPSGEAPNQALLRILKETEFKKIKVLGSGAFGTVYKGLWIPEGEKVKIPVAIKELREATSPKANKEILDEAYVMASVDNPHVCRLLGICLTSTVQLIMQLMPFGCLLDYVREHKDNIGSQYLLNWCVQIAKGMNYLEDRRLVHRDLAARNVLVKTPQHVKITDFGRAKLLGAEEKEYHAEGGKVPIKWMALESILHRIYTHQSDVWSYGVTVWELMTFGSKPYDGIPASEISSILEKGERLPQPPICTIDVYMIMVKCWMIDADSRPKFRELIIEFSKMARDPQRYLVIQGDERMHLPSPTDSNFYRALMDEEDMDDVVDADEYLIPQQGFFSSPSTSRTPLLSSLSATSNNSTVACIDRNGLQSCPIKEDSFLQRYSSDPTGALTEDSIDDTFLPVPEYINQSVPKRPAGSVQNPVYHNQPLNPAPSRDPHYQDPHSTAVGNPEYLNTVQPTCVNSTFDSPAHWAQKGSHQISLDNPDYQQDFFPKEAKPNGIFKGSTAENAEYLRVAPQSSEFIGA

IC50 [1] [nM]	IC50 [2] [nM]	IC50 [3] [nM]	melting point [°C]	IC50 [4] [nM]	Structure (SMILES)
> 1000	100 to 1000	< 10	161 to 162	1 to 10	C=CC(=O)Nc1cc(Nc2ncc(C(F)(F)F)c(-n3ccc4ccccc43)n2)c(OC)cc1N(C)CCN(C)C [Compound 5, N-(5-((4-(1H-indol-1-yl)-5-(trifluoromethyl)pyrimidin-2-yl)amino)-2-((2-(dimethylamino)ethyl)(methyl)amino)-4-methoxyphenyl)acrylamide]
> 1000	> 1000	< 10	143.3 to 147.8	1 to 10	C=CC(=O)Nc1cc(Nc2ncc(OC)c(-n3ccc4ccccc43)n2)c(OC)cc1N(C)CCN(C)C [Compound 6, N-(5-((4-(1H-indol-1-yl)-5-methoxypyrimidin-2-yl)amino)-2-((2-(dimethylamino)ethyl)(methyl)amino)-4-methoxyphenyl)acrylamide]
> 1000	100 to 1000	< 10	154 to 155	1 to 10	C=CC(=O)Nc1cc(Nc2ncc(N(C)C)c(-n3ccc4ccccc43)n2)c(OC)cc1N(C)CCN(C)C [Compound 10, N-(5-(5-(dimethylamino)-4-(1H-indol-1-yl)pyrimidin-2-ylamino)-2-((2-(dimethylamino)ethyl)(methyl)amino)-4-methoxyphenyl)acrylamide]
> 1000	100 to 1000	< 10	117 to 118	< 1	C=CC(=O)Nc1cc(Nc2nccc(-n3ccc4cc(OC)ccc43)n2)c(OC)cc1N(C)CCN(C)C [Compound 27, N-(2-((2-(dimethylamino)ethyl)(methyl)amino)-4-methoxy-5-((4-(5-methoxy-1H-indol-1-yl)pyrimidin-2-yl)amino)phenyl)acrylamide]
> 1000	100 to 1000	< 10	168 to 170	< 1	C=CC(=O)Nc1cc(Nc2nccc(-n3ccc4cc(F)ccc43)n2)c(OC)cc1N(C)CCN(C)C [Compound 28, N-(2-((2-(dimethylamino)ethyl)(methyl)amino)-5-((4-(5-fluoro-1H-indol-1-yl)pyrimidin-2-yl)amino)-4-methoxyphenyl)acrylamide]
> 1000	100 to 1000	< 10	164 to 165	< 1	C=CC(=O)Nc1cc(Nc2nccc(-n3ccc4ccc(F)cc43)n2)c(OC)cc1N(C)CCN(C)C [Compound 29, N-(2-((2-(dimethylamino)ethyl)(methyl)amino)-5-((4-(6-fluoro-1H-indol-1-yl)pyrimidin-2-yl)amino)-4-methoxyphenyl)acrylamide]
> 1000	100 to 1000	< 10	165.5 to 166.5	< 1	C=CC(=O)Nc1cc(Nc2nccc(-n3ccc4c(F)cccc43)n2)c(OC)cc1N(C)CCN(C)C [Compound 30, N-(2-((2-(dimethylamino)ethyl)(methyl)amino)-5-((4-(4-fluoro-1H-indol-1-yl)pyrimidin-2-yl)amino)-4-methoxyphenyl)acrylamide]
> 1000	100 to 1000	< 10	127 to 128	< 1	C=CC(=O)Nc1cc(Nc2nccc(-n3ccc4cc(C#N)ccc43)n2)c(OC)cc1N(C)CCN(C)C [Compound 33, N-(5-((4-(5-cyano-1H-indol-1-yl)pyrimidin-2-yl)amino)-2-((2-(dimethylamino)ethyl)(methyl)amino)-4-methoxyphenyl)acrylamide]
> 1000	100 to 1000	< 10	218 to 219	< 1	C=CC(=O)Nc1cc(Nc2nccc(-n3ccc4cc(O)ccc43)n2)c(OC)cc1N(C)CCN(C)C [Compound 36, N-(2-((2-(dimethylamino)ethyl)(methyl)amino)-5-((4-(5-hydroxy-1H-indol-1-yl)pyrimidin-2-yl)amino)-4-methoxyphenyl)acrylamide]
> 1000	100 to 1000	< 10	65 to 67	< 1	C=CC(=O)Nc1cc(Nc2nccc(-n3ccc4cc(OCCO)ccc43)n2)c(OC)cc1N(C)CCN(C)C [Compound 37, N-(2-((2-(dimethylamino)ethyl)(methyl)amino)-5-((4-(5-(2-hydroxyethoxy)-1H-indol-1-yl)pyrimidin-2-yl)amino)-4-methoxyphenyl)acrylamide]
> 1000	100 to 1000	< 10	59 to 61	< 1	C=CC(=O)Nc1cc(Nc2nccc(-n3ccc4cc(OCCOC)ccc43)n2)c(OC)cc1N(C)CCN(C)C [Compound 38, N-(2-((2-(dimethylamino)ethyl)(methyl)amino)-4-methoxy-5-((4-(5-(2-methoxyethoxy)-1H-indol-1-yl)pyrimidin-2-yl)amino)phenyl)acrylamide]
> 1000	100 to 1000	< 10	121.3 to 125.1	< 1	C=CC(=O)Nc1cc(Nc2nccc(-n3ccc4cc(C(N)=O)ccc43)n2)c(OC)cc1N(C)CCN(C)C [Compound 41, 1-(2-((5-acrylamido-4-((2-(dimethylamino)ethyl)(methyl)amino)-2-methoxyphenyl)amino)pyrimidin-4-yl)-1H-indole-5-carboxamide]
> 1000	> 1000	10 to 50	142 to 144	1 to 10	C=CC(=O)Nc1cc(Nc2nccc(-n3cc(Cl)c4ccccc43)n2)c(OC)cc1N(C)CCN(C)C [Compound 46, N-(5-((4-(3-chloro-1H-indol-1-yl)pyrimidin-2-yl)amino)-2-((2-(dimethylamino)ethyl)(methyl)amino)-4-methoxyphenyl)acrylamide]
> 1000	100 to 1000	< 10	70 to 71	< 1	C=CC(=O)Nc1cc(Nc2nccc(-n3c(=O)n(C)c4cc(Cl)ccc43)n2)c(OC)cc1N(C)CCN(C)C [Compound 51, N-(5-(4-(5-chloro-3-methyl-2-oxo-2,3-dihydro-1H-benzo[d]imidazol-1-yl)pyrimidin-2-ylamino)-2-((2-(dimethylamino)ethyl)(methyl)amino)-4-methoxyphenyl)acrylamide]
> 1000	100 to 1000	< 10	183 to 185	< 1	C=CC(=O)Nc1cc(Nc2nccc(-n3c(=O)n(C)c4cc(C#N)ccc43)n2)c(OC)cc1N(C)CCN(C)C [Compound 52, N-(5-((4-(5-cyano-3-methyl-2-oxo-2,3-dihydro-1H-benzo[d]imidazol-1-yl)pyrimidin-2-yl)amino)-2-((2-(dimethylamino)ethyl)(methyl)amino)-4-methoxyphenyl)acrylamide]
> 1000	> 1000	10 to 50	168 to 172	1 to 10	C=CC(=O)Nc1cc(Nc2ncc(OC)c(-n3c(=O)n(C)c4ccccc43)n2)c(OC)cc1N(C)CCN(C)C [Compound 57, N-(2-((2-(dimethylamino)ethyl) (methyl)amino)-4-methoxy-5-((5-methoxy-4-(3-methyl-2-oxo-2,3-dihydro-1H-benzo[d]imidazol-1-yl)pyrimidin-2-yl)amino)phenyl)acrylamide]
100 to 1000	100 to 1000	50 to 100	116.2 to 118.1	< 1	COc1cc(N(C)CCN(C)C)c(NC(=O)/C=C/CN(C)C)cc1Nc1nccc(-n2ccc3ccccc32)n1 [Compound 69, (E)-N-(5-((4-(1H-indol-1-yl)pyrimidin-2-yl)amino)-2-((2-(dimethylamino)ethyl)(methyl)amino)-4-methoxyphenyl)-4-(dimethylamino)but-2-enamide]
